Measurements from patent publication US20070009597A1, “Active substance combination comprising a compound with npy receptor affinity and a compound with 5-ht6 receptor affinity” (LABORATORIOS DEL DR. ESTEVE S.A., priority 2003, published 2007).
Structures can show the parent of a compound that is named as a salt. Where two headings read alike, the source gives them in different places.

Assays:
[1] = biological target: T1, recombinant human 5HT6 receptor (Homo sapiens, UniProt P50406); assay: Binding to the 5HT6 serotonin receptor ([3H]-LSD, HEK-293 cell membranes); settings: for inhibition at 1 µM: read-out: % Inhibition 10^−6 M
T1 construct: purchased Receptor Biology; host or cells: HEK-293
T1 sequence (P50406 whole entry): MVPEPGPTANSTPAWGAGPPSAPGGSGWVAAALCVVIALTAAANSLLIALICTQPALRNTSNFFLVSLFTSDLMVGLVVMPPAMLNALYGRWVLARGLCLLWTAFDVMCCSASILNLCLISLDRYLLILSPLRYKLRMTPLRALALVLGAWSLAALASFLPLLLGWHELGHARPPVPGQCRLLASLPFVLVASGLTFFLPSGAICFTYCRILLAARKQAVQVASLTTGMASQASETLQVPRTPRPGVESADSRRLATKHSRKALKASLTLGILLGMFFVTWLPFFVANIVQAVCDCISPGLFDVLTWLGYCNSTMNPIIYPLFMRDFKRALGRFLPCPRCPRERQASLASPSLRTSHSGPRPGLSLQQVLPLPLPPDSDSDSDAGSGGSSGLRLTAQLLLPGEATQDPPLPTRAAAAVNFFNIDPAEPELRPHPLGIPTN
Experimental: Binding to the 5HT6 Serotonin Receptor
The respective part of the literature descriptions is incorporated here by reference and form part of the disclosure. […] The assays are carried out in triplicate.

[2] = 10^−6 M, table 1d, compounds of general formula (Id)
[3] = 10^−6 M, table 1f, compounds of general formula (If)
[4] = table 1f, compounds of general formula (If)
[5] = table 1c, compounds of general formula (Ic)
[6] = table 1e, compounds of general formula (Ie)
[7] = table 1h, compounds of general formula (Ih)
[8] = 10^−6 M, table 2b, compounds of general formula (Ib)
[9] = 10^−6 M, table 1c, compounds of general formula (Ic)

For `O=C(CN1CCC(Nc2ccccc2CO)CC1)Nc1ccc2c(c1)CCC2=O`, the melting point was 138 to 140 °C.

With `O=C1OCc2ccccc2N1C1CCN(S(=O)(=O)c2cccc3ccccc23)CC1` [Example 1b, 1-[1-(Naphthyl-1-sulfonyl)-piperidine-4-yl]-1,4-dihydro-benzo[d][1,3]oxazine-2-one] the Ki [1] was 0.0517 µM and the inhibition at 1 µM [1] was 98.1 ± 4%.

`Cc1c(S(=O)(=O)Nc2cccc3c2ccn3CCN(C)C)sc2ccc(Cl)cc12` [Example 1d, N-[1-(2-dimethylaminoethyl)-1H-indole-4-yl]-5-chloro-3-methylbenzo[b]thiophene-2-sulfonamide] gave an inhibition at 1 µM [1, 2] of 83.9%.

`Cc1c(S(=O)(=O)Nc2ccc3ccn(CCN(C)C)c3c2)sc2ccc(Cl)cc12` [Example 1f, N-[1-(2-Dimethylaminoethyl)-1H-indol-6-yl]-5-chloro-3-methylbenzo[b]thiophene-2-sulfonamide] showed an inhibition at 1 µM [1, 3] of 98.6% and a Ki [1, 4] of 0.0902 µM.

For `CN1CC=C(c2cn(S(=O)(=O)C3CCCCC3)c3ccc([N+](=O)[O-])cc23)CC1` [Example 1h, 1-cyclohexanesulfonyl-3-(1-methyl-1,2,3,6-tetrahydropyridine-4-yl)-5-nitro-1H-indole], the inhibition at 1 µM ([1]; 10^−6 M, table 1h, compounds of general formula (Ih)) was 59.8 ± 3%.

In the case of `CN(C)CCn1ccc2c(NS(=O)(=O)c3ccc4ccccc4c3)cccc21` [Example 2d, N-[1-(2-dimethylaminoethyl)-1H-indole-4-yl]-naphtalene-2-sulfonamide], the “% Inhibition 10^−6 M” value [1, 2] is reported as 104.3%.

With `CN(C)CCn1ccc2ccc(NS(=O)(=O)c3ccc4ccccc4c3)cc21` [Example 2f, N-[1-(2-Dimethylaminoethyl)-1H-indol-6-yl]-naphthalene-2-sulfonamide] the Ki [1] was 0.0412 µM and the inhibition at 1 µM [1] was 97.7%.

In the case of `Cc1c(S(=O)(=O)N2CCC(N3C(=O)OCc4ccccc43)CC2)sc2ccc(Cl)cc12` [Example 3b, 1-[1-(5-chloro-3-methyl-benzo[b]tiophene-2-sulfonyl)-piperidine-4-yl]-1,4-dihydro-benzo[d][1,3]oxazine-2-one], the Ki [1] is reported as 0.107 µM.

Work on `CCN(CC)CCc1c[nH]c2ccc(NS(=O)(=O)c3cccc4ccccc34)cc12` [Example 3c, Hydrochloride N-[3-(2-diethylaminoethyl)-1H-indol-5-yl]naphthalene-1-sulphonamide] yielded a Ki [1, 5] of 0.0035 µM.

For `CN(C)CCn1ccc2c(NS(=O)(=O)c3cccc4ccccc34)cccc21` [Example 3d, N-[1-(2-dimethylaminoethyl)-1H-indole-4-yl]-naphtalene-1-sulfonamide], the “% Inhibition 10^−6 M” value [1, 2] was 94.8%.

For `CN(C)CCn1ccc2cc(NS(=O)(=O)c3cccc4ccccc34)ccc21` [Example 3e, N-[1-(2-dimethylaminoethyl)-1H-indole-5-yl]-naphthalene-1-sulfonamide], the Ki [1, 6] was 0.0942 µM.

With `CN(C)CCn1ccc2ccc(NS(=O)(=O)c3cccc4ccccc34)cc21` [Example 3f, N-[1-(2-Dimethylaminoethyl)-1H-indol-6-yl]-naphthalene-1-sulfonamide] the “% Inhibition 10^−6 M” value [1, 3] was 95.3% and the Ki [1, 4] was 0.0198 µM.

`CN1CC=C(c2cn(S(=O)(=O)C3CCCCC3)c3ccc(N)cc23)CC1` [Example 3h, 5-amino-1-cyclohexanesulfonyl-3-(1-methyl-1,2,3,6-tetrahydropyridine-4-yl)-1H-indole] gave a Ki [1, 7] of 0.0551 µM.

For `Cc1cccc2c1N(C1CCN(S(=O)(=O)c3cccc4ccccc34)CC1)C(=O)OC2` [Example 4b, 8-Methyl-1-[1-(naphthyl-1-sulfonyl)-piperidine-4-yl]-1,4-dihydro-benzo[d][1,3]oxazine-2-one], the Ki [1] was 0.246 µM.

`CCN(CC)CCc1c[nH]c2ccc(NS(=O)(=O)c3cc(Cl)cc(Cl)c3)cc12` [Example 4c, N-[3-(2-diethylaminoethyl)-1H-indol-5-yl]-3,5-dichlorobenzenesulphonamide] gave a Ki [1, 5] of 0.0093 µM.

`CN(C)CCn1ccc2c(NS(=O)(=O)c3ccc(-c4ccccc4)cc3)cccc21` [Example 4d, N-[1-(2-dimethylaminoethyl)-1H-indole-4-yl]-4-phenylbenzenesulfonamide] showed an inhibition at 1 µM [1, 2] of 46.6%.

`CN(C)CCn1ccc2cc(NS(=O)(=O)c3cccc4c(Cl)cccc34)ccc21` [Example 4e, N-[1-(2-dimethylaminoethyl)-1H-indole-5-yl]-5-chloronaphthalene-1-sulfonamide] gave a Ki [1, 6] of 0.112 µM.

Compound `CN(C)CCn1ccc2ccc(NS(=O)(=O)c3c(Cl)nc4sccn34)cc21` [Example 4f, N-[1-(2-Dimethylaminoethyl)-1H-indol-6-yl]-6-chloroimidazo[2,1-b]thiazole-5-sulfonamide] has an inhibition at 1 µM [1, 3] of 90.8% and a Ki [1, 4] of 0.0552 µM.

With `O=S(=O)(C1CCCCC1)n1cc(C2=CCN3CCCC3C2)c2cc(F)ccc21` (stereo not shown) [Example 4h, 1-cyclohexanesulfonyl-5-fluoro-3-(1,2,3,5,8,8a-hexahydro-indolizine-7-yl)-1H-indole] the Ki [1, 7] was 0.191 µM.

`O=C1OCc2ccccc2N1C1CCN(S(=O)(=O)c2cccc3cccnc23)CC1` [Example 5b] gave a Ki [1] of 0.152 µM.

In the case of `CCN(CC)CCc1c[nH]c2ccc(NS(=O)(=O)c3ccc(-c4ccccc4)cc3)cc12` [Example 5c, N-[3-(2-diethylaminoethyl)-1H-indol-5-yl]-4-phenylbenzenesulphonamide], the Ki [1, 5] is reported as 0.001 µM.

For `CN(C)CCn1ccc2ccc(NS(=O)(=O)c3ccc(-c4ccccc4)cc3)cc21` [Example 5f, N-[1-(2-Dimethylaminoethyl)-1H-indol-6-yl]-4-phenylbenzenesulfonamide], the inhibition at 1 µM [1, 3] was 93.4%.

For `Cc1cccc2c1N(C1CCN(S(=O)(=O)c3cccc4cccnc34)CC1)C(=O)OC2` [Example 6b, 8-Methyl-1-[1-(quinolinyl-8-sulfonyl)-piperidine-4-yl]-1,4-dihydro-benzo[d][1,3]oxazine-2-one], the Ki ([1]; table 2b, compounds of general formula (Ib)) was 0.166 µM.

In the case of `CN(C)CCn1ccc2c(NS(=O)(=O)c3ccc(Oc4ccccc4)cc3)cccc21` [Example 6d, N-[1-(2-dimethylaminoethyl)-1H-indole-4-yl]-4-phenoxybenzenesulfonamide], the “% Inhibition 10^−6 M” value [1, 2] is reported as 55.8%.

In the case of `CN(C)CCn1ccc2ccc(NS(=O)(=O)CCc3cccc4ccccc34)cc21` [Example 6f, N-[1-(2-Dimethylaminoethyl)-1H-indol-6-yl]-2-(naphthalene-1-yl)-ethanesulfonamide], the inhibition at 1 µM [1, 3] is reported as 94.5% and the Ki [1, 4] is reported as 0.0745 µM.

`Cc1cccc2c1N(C1CCN(S(=O)(=O)c3cccc4c(N(C)C)cccc34)CC1)C(=O)OC2` [Example 7b, 1-[1-(5-Dimethylamino-naphthyl-1-sulfonyl)-piperidine-4-yl]-8-Methyl-1,4-dihydro-benzo[d][1,3]oxazine-2-one] showed an inhibition at 1 µM [1, 8] of 88%.

For `CN(C)CCn1ccc2ccc(NS(=O)(=O)c3ccc(Oc4ccccc4)cc3)cc21` [Example 7f, N-[1-(2-Dimethylaminoethyl)-1H-indol-6-yl]-4-phenoxybenzenesulfonamide], the “% Inhibition 10^−6 M” value [1, 3] was 95.1% and the Ki [1, 4] was 0.119 µM.

Compound `CN(C)c1cccc2c(S(=O)(=O)N3CCC(N4C(=O)OCc5ccccc54)CC3)cccc12` [Example 8b, 1-[1-(5-Dimethylamino-naphthyl-1-sulfonyl)-piperidine-4-yl]-1,4-dihydro-benzo[d][1,3]oxazine-2-one] has an inhibition at 1 µM [1, 8] of 68%.

In the case of `CN(C)CCn1ccc2ccc(NS(=O)(=O)c3cc(Cl)cc(Cl)c3)cc21` [Example 8f, N-[1-(2-Dimethylaminoethyl)-1H-indol-6-yl]-3,5-dichlorobenzenesulfonamide], the inhibition at 1 µM [1, 3] is reported as 86.9% and the Ki [1, 4] is reported as 0.159 µM.

In the case of `CN(C)CCn1ccc2cc(NS(=O)(=O)c3c(Cl)nc4sccn34)ccc21` [Example 11e, N-[1-(2-dimethylaminoethyl)-1H-indole-5-yl]-6-chloroimidazo[2,1-b]thiazole-5-sulfonamide], the Ki [1, 6] is reported as 0.00189 µM.

Work on `CN(C)CCn1ccc2cc(NS(=O)(=O)c3cc(Cl)cc(Cl)c3)ccc21` [Example 12e, N-[1-(2-dimethylaminoethyl)-1H-indole-5-yl]-3,5-dichlorobenzenesulfonamide] yielded a Ki [1, 6] of 0.105 µM.

`CN1CCC(c2c[nH]c3ccc(NS(=O)(=O)c4cccc5ccccc45)cc23)CC1` [Example 13c, N-[3-(1-methylpiperidin-4-yl)-1H-indol-5-yl]naphthalene-1-sulphonamide hydrochloride] showed a Ki [1] of 0.0047 µM.

In the case of `CN(C)CCn1ccc2cc(NS(=O)(=O)c3cccc(Br)c3)ccc21` [Example 13e, N-[1-(2-dimethylaminoethyl)-1H-indole-5-yl]-3-bromobenzenesulfonamide], the Ki [1, 6] is reported as 0.0825 µM.

With `CN1CCC(c2c[nH]c3ccc(NS(=O)(=O)c4ccc(Cl)s4)cc23)CC1` [Example 14c, N-[3-(1-methylpiperidin-4-yl)-1H-indol-5-yl]-5-chlorothiophene-2-sulphonamide] the “% Inhibition 10^−6 M” value [1, 9] was 95.7 ± 3.4% and the Ki [1, 5] was 0.0243 µM.

In the case of `CN1CCC(c2c[nH]c3ccc(NS(=O)(=O)c4ccc(-c5ccccc5)cc4)cc23)CC1` [Example 15c, N-[3-(1-methylpiperidin-4-yl)-1H-indol-5-yl]-4-phenylbenzenesulphonamide], the “% Inhibition 10^−6 M” value [1, 9] is reported as 97.4 ± 0.8% and the Ki [1, 5] is reported as 0.0068 µM.

In the case of `CN1CCC(c2c[nH]c3ccc(NS(=O)(=O)c4cccc5cccnc45)cc23)CC1` [Example 16c, N-[3-(1-methylpiperidin-4-yl)-1H-indol-5-yl]quinoline-8-sulphonamide], the “% Inhibition 10^−6 M” value [1, 9] is reported as 94.4 ± 8.6% and the Ki [1, 5] is reported as 0.0212 µM.

Work on `CCN(CC)CCc1c[nH]c2ccc(NS(=O)(=O)c3ccc4ccccc4c3)cc12` [Example 17c, N-[3-(2-diethylaminoethyl)-1H-indol-5-yl]naphthalene-2-sulphonamide] yielded a Ki [1, 5] of 0.0053 µM.

With `CN(C)CCn1ccc2cc(NS(=O)(=O)c3cc(Cl)c(Cl)s3)ccc21` [Example 20e, N-[1-(2-dimethylaminoethyl)-1H-indole-5-yl]-4,5-dichlorothiophene-2-sulfonamide] the Ki [1, 6] was 0.0848 µM.
